# According to patent US20090325948A1, “INHIBITORS OF UNDECAPRENYL PYROPHOSPHATE SYNTHASE” (priority 2006, published 2009):
# Target: T1, Streptococcus pneumonia UPPS (Streptococcus pneumoniae serotype 4, UniProt Q97SR4)
# T1 construct: His-tag (N); made in house; this is inferred
# T1 sequence (Q97SR4 1-252): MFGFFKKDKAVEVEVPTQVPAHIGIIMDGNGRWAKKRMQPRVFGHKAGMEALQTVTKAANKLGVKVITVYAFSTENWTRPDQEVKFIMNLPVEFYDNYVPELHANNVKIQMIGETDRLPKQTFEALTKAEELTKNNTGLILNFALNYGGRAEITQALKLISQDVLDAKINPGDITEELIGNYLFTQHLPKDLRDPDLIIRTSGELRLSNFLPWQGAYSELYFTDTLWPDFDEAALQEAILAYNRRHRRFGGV
# Experiment: UPPS binding/inhibition assay (inorganic phosphate quantified with Biomol Green)
# Format: biochemical
# Conditions: 20 min preincubation; FPP 3 μM, IPP 16 μM
# Protocol: The ability of several of the compounds described herein to bind to UPPS was also tested as follows.
# Streptococcus pneumonia UPPS was cloned into pET-15b, expressed and purified as an N-terminal His-tag fusion using affinity chromatography. The working stock of UPPS was prepared by mixing the purified enzyme with liposome made from E. coli total lipids extract (Avanti Polar Lipis, Inc., Alabaster, Ala.). The substrates FPP and IPP and inorganic pyrophosphatase were purchased from Sigma. Biomol Green reagent was from Biomol International (Plymouth Meeting, Pa.). All other chemicals were from Sigma at the highest grade.
# For testing a compound, UPPS was first incubated with the compound at desired concentrations for 20 minutes in the UPPS reaction buffer that contained 100 mM Tris-HCl, pH 7.3, 50 mM KCl, 1 mM MgCl2, 0.01% Triton X-100, and 20 μg/mL BSA. The reaction was then initiated by the addition of a mixture of FPP, IPP, and E. Coli inorganic phosphatase made in the same UPPS reaction buffer. The final concentrations for FPP and IPP were 3 μM and 16 μM, respectively. The inorganic phosphate generated in the reactions was then quantified with Biomol Green reagent, which was then used to determine the rate of the reaction and the inhibitory activity of the compound.
# For example, the results of the binding assay for several compounds are shown the table below: […]
row,IC50 [µM],SMILES
1,0.01 to 10,O=C(Nc1ccc(N2CCCCC2)cc1)c1c(O)c2cc(N3CCNCC3)ccc2[nH]c1=O [compound 179]
2,0.01 to 10,CC(C)(C)OC(=O)N1CCC2C(O)=C(C(=O)Nc3ccc(N4CCCC4)cc3)C(=O)NC2C1 (stereo not shown) [compound 54]
3,> 50,O=C(Nc1cccc(Cl)c1Cl)c1c(O)c2c([nH]c1=O)CCCC2 [compound 100]
4,0.01 to 10,O=C(Nc1ccc(C2CCCCC2)cc1)c1c(O)c2cc(-c3ccccc3)sc2[nH]c1=O [compound 107]
5,0.01 to 10,Cn1c(=O)c(C(=O)Nc2ccc(Oc3ccccc3)cc2)c(O)c2ccccc21 [compound 168]
6,0.01 to 10,O=C(Nc1ccc(-c2ccccc2)cc1)C1=C(O)C2CNCCC2NC1=O (stereo not shown) [compound 26]
7,0.01 to 10,CCN1CC[C@@H]2NC(=O)C(C(=O)Nc3ccc(N4CCCCC4)cc3)=C(O)[C@H]2C1 [compound 69]
8,0.01 to 10,O=C(Nc1ccc(C(F)(F)F)nc1)c1c(O)c2ccccc2[nH]c1=O [compound 157]
9,0.01 to 10,Cn1c(=O)c(C(=O)Nc2ccc(OC(F)(F)F)cc2)c(O)c2ccccc21 [compound 175]
10,0.01 to 10,O=C(Nc1ccc(Oc2ccccc2)cc1)c1c(O)c2cscc2[nH]c1=O [compound 2]
11,0.01 to 10,O=C(Nc1ccc(-c2ccccc2)cc1)C1=C(O)[C@H]2CNC[C@@H]2NC1=O [compound 17]
12,0.01 to 10,O=C(NC1CCCCCC1)c1c(O)c2c([nH]c1=O)CCCC2 [compound 92]
13,0.01 to 10,O=C(Nc1ccc(C2CCCCC2)cc1)C1=C(O)[C@H]2CNCC[C@@H]2NC1=O [compound 51]
14,0.01 to 10,O=C(NCc1ccccc1)c1c(O)c2c([nH]c1=O)CCCC2 [compound 84]
15,0.01 to 10,O=C(Nc1ccc(N2CCCCC2)cc1)C1=C(O)[C@H]2CNCC[C@@H]2NC1=O [compound 46]
16,> 50,O=C(Nc1ccc(N2CCN(CCO)CC2)cc1)C1=C(O)C2CNCCC2NC1=O (stereo not shown) [compound 64]
17,0.01 to 10,O=C(Nc1ccc(N2CCCC2)cc1)C1=C(O)C2CCNCC2NC1=O (stereo not shown) [compound 61]
18,0.01 to 10,O=C(Nc1ccc(Oc2ccccc2)cc1)c1c(O)c2ccccc2[nH]c1=O [compound 142]
19,0.01 to 10,O=C(NNC(=O)c1c(O)c2ccccc2[nH]c1=O)c1ccccc1Cl [compound 131]
20,0.01 to 10,COc1ccc(-c2nc(NC(=O)c3c(O)c4ccccc4n(C)c3=O)nn2-c2ccc(OC)cc2)cc1 [compound 173]
21,0.01 to 10,O=C(Nc1ccc(-c2ccccc2)cc1)c1c(O)c2cc(Br)ccc2[nH]c1=O [compound 159]
22,> 50,C#CCOC(=O)N1CC[C@@H]2NC(=O)C(C(=O)Nc3ccc(N4CCCCC4)cc3)=C(O)[C@H]2C1 [compound 73]
23,0.01 to 10,CC(C)(C)OC(=O)N1CCC2NC(=O)C(C(=O)Nc3ccc(N4CCN(CCO)CC4)cc3)=C(O)C2C1 (stereo not shown) [compound 59]
24,0.01 to 10,CC(C)(C)C(=O)N1CCc2[nH]c(=O)c(C(=O)Nc3ccc(N4CCCCC4)cc3)c(O)c2C1 [compound 128]
25,0.01 to 10,CCN1C[C@@H]2NC(=O)C(C(=O)Nc3ccc(C4CCCCC4)cc3)=C(O)[C@H]2C1 [compound 20]
26,0.01 to 10,O=C(Nc1ccc(N2CCCCC2)cc1)C1=C(O)[C@H]2CNCC[C@H]2NC1=O [compound 47]
27,0.01 to 10,O=C(NCCN1CCOCC1)c1c(O)c2ccccc2[nH]c1=O [compound 154]
28,0.01 to 10,CC(C)(C)C1CCC(NC(=O)c2c(O)c3cscc3[nH]c2=O)CC1 (stereo not shown) [compound 11]

row,IC50 [µM],SMILES
1,0.01 to 10,CC(C)(C)OC(=O)N1CCC2NC(=O)C(C(=O)Nc3ccc(Oc4ccccc4)cc3)=C(O)C2C1 (stereo not shown) [compound 34]
2,0.01 to 10,CCCN(CC)c1ccc(NC(=O)c2c(O)c3ccc(N4CCN(C)CC4)cc3[nH]c2=O)cc1 [compound 180]
3,0.01 to 10,CCCN(CC)c1ccc(NC(=O)c2c(O)c3ccc(N4CCNCC4)cc3[nH]c2=O)cc1 [compound 178]
4,0.01 to 10,CCCOC(=O)c1ccc(NC(=O)c2c(O)c3c([nH]c2=O)CCCC3)cc1 [compound 124]
5,0.01 to 10,O=C(NC1CCCCC1)c1c(O)c2ccccc2[nH]c1=O [compound 137]
6,0.01 to 10,O=C(Nc1ccc(C(F)(F)F)cc1)C1=C(O)[C@H]2CCC[C@H]2NC1=O [compound 40]
7,0.01 to 10,CC(C)CCNC(=O)c1c(O)c2c([nH]c1=O)CCCC2 [compound 87]
8,0.01 to 10,O=C(Nc1ccc(N2CCCCC2)cc1)C1=C(O)C2CNCCC2NC1=O (stereo not shown) [compound 37]
9,0.01 to 10,O=C(Nc1ccc(N2CCCCC2)cc1)c1c(O)c2c([nH]c1=O)CNCC2 [compound 120]
10,0.01 to 10,O=C(Nc1ccc(C2CCCCC2)cc1)C1=C(O)[C@H]2CCC[C@H]2NC1=O [compound 45]
11,0.01 to 10,O=C(Nc1nc2ccc(Br)cc2s1)c1c(O)c2c([nH]c1=O)CCCC2 [compound 104]
12,10 to 50,O=C(Nc1ccc(C(F)(F)F)cc1)c1c(O)c2cc(-c3ccccc3)sc2[nH]c1=O [compound 111]
13,0.01 to 10,O=C(Nc1ccccc1Oc1ccccc1)c1c(O)c2ccccc2[nH]c1=O [compound 162]
14,0.01 to 10,CNC(=O)c1ccccc1NC(=O)c1c(O)c2c([nH]c1=O)CCCC2 [compound 98]
15,0.01 to 10,COC(=O)N1CCc2[nH]c(=O)c(C(=O)Nc3ccc(N4CCCCC4)cc3)c(O)c2C1 [compound 129]
16,0.01 to 10,CC(C)(C)OC(=O)N1CCC2NC(=O)C(C(=O)Nc3ccc(C4CCCCC4)cc3)=C(O)C2C1 (stereo not shown) [compound 29]
17,0.01 to 10,O=C(Nc1ccc(N2CCCCC2)cc1)c1c(O)c2c([nH]c1=O)CCNC2 [compound 121]
18,0.01 to 10,COCCOC(=O)N1CC[C@@H]2NC(=O)C(C(=O)Nc3ccc(N4CCCCC4)cc3)=C(O)[C@H]2C1 [compound 72]
19,0.01 to 10,O=C(Nc1ccc(N2CCCCC2)cc1)C1=C(O)C2CCNCC2NC1=O (stereo not shown) [compound 49]
20,0.01 to 10,O=C(Nc1ccc(N2CCCCC2)cc1)C1=C(O)C2CCNCC2NC1=O (stereo not shown) [compound 32]
21,0.01 to 10,CCCCCCOc1ccc(NC(=O)c2c(O)c3cc(-c4ccccc4)sc3[nH]c2=O)cc1 [compound 110]
22,> 50,O=C(Nc1cccc(Br)c1)c1c(O)c2c([nH]c1=O)CCCC2 [compound 93]
23,> 50,COc1cccc2[nH]c(=O)c(C(=O)Nc3ccc(Oc4ccccc4)cc3)c(O)c12 [compound 144]
24,0.01 to 10,O=C(Nc1ccc(Oc2ccccc2)cc1)C1=C(O)C2CNCCC2NC1=O (stereo not shown) [compound 28]
25,0.01 to 10,O=C(Nc1ccc(C2CCCCC2)cc1)c1c(O)c2cscc2[nH]c1=O [compound 4]
26,0.01 to 10,COc1ccc(-c2nc(NC(=O)c3c(O)c4cscc4[nH]c3=O)nn2-c2ccc(OC)cc2)cc1 [compound 10]
27,0.01 to 10,CC(=O)N1CCc2[nH]c(=O)c(C(=O)Nc3ccc(N4CCCCC4)cc3)c(O)c2C1 [compound 126]
